Test results reported in patent publication US10214507B2, “Carbazole-containing amides, carbamates, and ureas as cryptochrome modulators” (Reset Therapeutics, Inc., priority 2014, dated 2019).
pEC50: −log10 of the molar value.

System: stable U20S reporter cells harboring Per2-dLuc
Assay: Per2 assay for evaluating the potency of test compounds (circadian luciferase reporter)
Format: cell-based
Conditions: amplitude of Per2-dLuc luminescence vs log concentration
Method: Compounds were screened by using a high-throughput circadian assay system as previously described in Zhang, E. E. et al. Cell, 2009, 139, 199-210. In brief, stable U20S reporter cells harboring Per2-dLuc were plated at a density of 30,000 cells/well in Corning 96-well, solid white, flat bottom, TC-treated microplates (Corning®), and incubated for 48 hours at 37° C. in the presence of 5% CO2 in a medium of Dulbecco's Modified Eagle Medium (DMEM) supplemented with 10% fetal bovine serum (FBS) and penicillin (100 units/mL)-streptomycin (100 μg/mL). […] DMSO stocks are then serially diluted in DMSO, typically diluting 3-fold for each dilution step. Following the 48 h period, cell culture medium is removed from plated cells and cells are synchronized with 200 μL/well of complete cell culture medium (described above), supplemented with 5 μM forskolin (Tocris®) and 1 mM beetle luciferin (Promega®). Immediately following synchronization, 1 μL of compound dilution is added to each well. Plates are sealed, shaken briefly, and gene expression was monitored by measuring luminescence (Tecan® Infinite M200 or Tecan® Infinite M200 Pro) continuously for a minimum of 3 days at 35° C. Raw luminescence data (counts) are first analyzed using Multicycle™ software (Actimetrics, Inc.) to determine the amplitude (amp), period, and phase (phz) for each compound concentration. The period length for control wells (i.e. no compound, DMSO only) should be 26-30 h. Amp data are then plotted against the logarithm compound concentration (M) and analyzed by nonlinear regression analysis to determine the EC50.

Structure (SMILES) | pEC50
CC(O)(CN1Cc2ccccc2NC1=O)Cn1c2ccc(F)cc2c2cc(F)ccc21 (stereo not drawn) [Compound 102, 3-(3-(3,6-difluoro-9H-carbazol-9-yl)-2-hydroxy-2-methylpropyl)-3,4-dihydroquinazolin-2(1H)-one] | 6.34
O=C1C(C2CCC2)CCCN1CC(O)Cn1c2ccc(F)cc2c2cc(F)ccc21 (stereo not drawn) [Compound 51, 3-cyclobutyl-1-(3-(3,6-difluoro-9H-carbazol-9-yl)-2-hydroxypropyl)piperidin-2-one] | 6.58
CN1CCCN(CC(O)Cn2c3ccc(F)cc3c3cc(F)ccc32)C1=O (stereo not drawn) [Compound 6, 1-(3-(3,6-difluoro-9H-carbazol-9-yl)-2-hydroxypropyl)-3-methyltetrahydropyrimidin-2(1H)-one] | 6.14
CC1CC(=O)N(CC(C)(O)Cn2c3ccc(F)cc3c3cc(F)ccc32)C1 (stereo not drawn) [Compound 44, 1-(3-(3,6-difluoro-9H-carbazol-9-yl)-2-hydroxy-2-methylpropyl)-4-methylpyrrolidin-2-one] | 5.97
O=C1N(CC(O)Cn2c3ccc(F)cc3c3cc(F)ccc32)CCN1C1CCCC1 (stereo not drawn) [Compound 91, 1-cyclopentyl-3-(3-(3,6-difluoro-9H-carbazol-9-yl)-2-hydroxypropyl)imidazolidin-2-one] | 6.21
CC1(C)CC(=O)N(CC(O)Cn2c3ccc(F)cc3c3cc(F)ccc32)C1 (stereo not drawn) [Compound 31, 1-(3-(3,6-difluoro-9H-carbazol-9-yl)-2-hydroxypropyl)-4,4-dimethylpyrrolidin-2-one] | 6.08
CCC1CC(=O)N(CC(C)(O)Cn2c3ccc(F)cc3c3cc(F)ccc32)C1 (stereo not drawn) [Compound 46, 1-(3-(3,6-difluoro-9H-carbazol-9-yl)-2-hydroxy-2-methylpropyl)-4-ethylpyrrolidin-2-one] | 6.21
COC1CCCN(CC(O)Cn2c3ccccc3c3ccccc32)C1=O (stereo not drawn) [Compound 60, 1-(3-(9H-carbazol-9-yl)-2-hydroxypropyl)-3-methoxypiperidin-2-one] | 6.48
C[C@@H]1CCC(=O)N(C[C@H](O)Cn2c3ccccc3c3ccccc32)C1 [Compound 131, (R)-1-((R)-3-(9H-carbazol-9-yl)-2-hydroxypropyl)-5-methylpiperidin-2-one] | 6.55
O=C1N(CC(O)Cn2c3ccccc3c3ccccc32)CCCC1(F)F (stereo not drawn) [Compound 69, 1-(3-(9H-carbazol-9-yl)-2-hydroxypropyl)-3,3-difluoropiperidin-2-one] | 6.86
O=C1N(CC(O)Cn2c3ccc(F)cc3c3cc(F)ccc32)CCCC1(F)F (stereo not drawn) [Compound 13, 1-(3-(3,6-difluoro-9H-carbazol-9-yl)-2-hydroxypropyl)-3,3-difluoropiperidin-2-one] | 6.54
CC1CC(=O)N(CC(O)Cn2c3ccc(F)cc3c3cc(F)ccc32)C1 (stereo not drawn) [Compound 43, 1-(3-(3,6-difluoro-9H-carbazol-9-yl)-2-hydroxypropyl)-4-methylpyrrolidin-2-one] | 5.99
CC1CN(CC(O)Cn2c3ccc(F)cc3c3cc(F)ccc32)C(=O)N1 (stereo not drawn) [Compound 85, 1-(3-(3,6-difluoro-9H-carbazol-9-yl)-2-hydroxypropyl)-4-methylimidazolidin-2-one] | 6.18
O=C1N(CC(O)Cn2c3ccccc3c3ccccc32)CCCN1C1CC1 (stereo not drawn) [Compound 99, 1-(3-(9H-carbazol-9-yl)-2-hydroxypropyl)-3-cyclopropyltetrahydropyrimidin-2(1H)-one] | 6.26
O=C1N(CC(O)Cn2c3ccc(F)cc3c3cc(F)ccc32)CCCN1C1CCCCC1 (stereo not drawn) [Compound 74, 1-cyclohexyl-3-(3-(3,6-difluoro-9H-carbazol-9-yl)-2-hydroxypropyl)tetrahydropyrimidin-2(1H)-one] | 6.55
O=C1CCCCN1CC(O)Cn1c2ccc(F)cc2c2cc(F)ccc21 (stereo not drawn) [Compound 4, 1-(3-(3,6-difluoro-9H-carbazol-9-yl)-2-hydroxypropyl)piperidin-2-one] | 6.72
CC(O)(CN1CCCN(c2ccccc2)C1=O)Cn1c2ccc(F)cc2c2cc(F)ccc21 (stereo not drawn) [Compound 79, 1-(3-(3,6-difluoro-9H-carbazol-9-yl)-2-hydroxy-2-methylpropyl)-3-phenyltetrahydropyrimidin-2(1H)-one] | 6.03
CCC1CCN(CC(O)Cn2c3ccc(F)cc3c3cc(F)ccc32)C1=O (stereo not drawn) [Compound 17, 1-(3-(3,6-difluoro-9H-carbazol-9-yl)-2-hydroxypropyl)-3-ethylpyrrolidin-2-one] | 6.38
CC(C)N1CCN(CC(O)Cn2c3ccccc3c3ccccc32)C1=O (stereo not drawn) [Compound 98, 1-(3-(9H-carbazol-9-yl)-2-hydroxypropyl)-3-isopropylimidazolidin-2-one] | 6.57
O=C1N(CC(O)Cn2c3ccc(F)cc3c3cc(F)ccc32)CCCN1C1CC1 (stereo not drawn) [Compound 83, 1-cyclopropyl-3-(3-(3,6-difluoro-9H-carbazol-9-yl)-2-hydroxypropyl)tetrahydropyrimidin-2(1H)-one] | 6.83
O=C1[C@H]2CC[C@H](C2)N1C[C@H](O)Cn1c2ccccc2c2ccccc21 [Compound 107, (1R,4S)-2-((R)-3-(9H-carbazol-9-yl)-2-hydroxypropyl)-2-azabicyclo[2.2.1]heptan-3-one] | 7.05
O=C1C(F)CCCN1CC(O)Cn1c2ccccc2c2ccccc21 (stereo not drawn) [Compound 70, 1-(3-(9H-carbazol-9-yl)-2-hydroxypropyl)-3-fluoropiperidin-2-one] | 7.21
CC1CC(=O)N(CC(O)Cn2c3ccc(F)cc3c3cc(F)ccc32)C1C (stereo not drawn) [Compound 47, 1-(3-(3,6-difluoro-9H-carbazol-9-yl)-2-hydroxypropyl)-4,5-dimethylpyrrolidin-2-one] | 6.52
O=C1C(C2CCCCC2)CCCN1CC(O)Cn1c2ccc(F)cc2c2cc(F)ccc21 (stereo not drawn) [Compound 20, 3-cyclohexyl-1-(3-(3,6-difluoro-9H-carbazol-9-yl)-2-hydroxypropyl)piperidin-2-one] | 6.42
CC1(C)CCN(CC(O)Cn2c3ccc(F)cc3c3cc(F)ccc32)C1=O (stereo not drawn) [Compound 15, 1-(3-(3,6-difluoro-9H-carbazol-9-yl)-2-hydroxypropyl)-3,3-dimethylpyrrolidin-2-one] | 6.79
O=C1N(CC(O)Cn2c3ccc(F)cc3c3cc(F)ccc32)CCCN1c1ccccc1 (stereo not drawn) [Compound 75, 1-(3-(3,6-difluoro-9H-carbazol-9-yl)-2-hydroxypropyl)-3-phenyltetrahydropyrimidin-2(1H)-one] | 6.77
O=C1C(C2CCCC2)CCCN1CC(O)Cn1c2ccc(F)cc2c2cc(F)ccc21 (stereo not drawn) [Compound 23, 3-cyclopentyl-1-(3-(3,6-difluoro-9H-carbazol-9-yl)-2-hydroxypropyl)piperidin-2-one] | 6.40
O=C1C(c2ccccc2)CCN1CC(O)Cn1c2ccc(F)cc2c2cc(F)ccc21 (stereo not drawn) [Compound 53, 1-(3-(3,6-difluoro-9H-carbazol-9-yl)-2-hydroxypropyl)-3-phenylpyrrolidin-2-one] | 5.87
O=C1C(F)CCCN1CC(O)Cn1c2ccc(F)cc2c2cc(F)ccc21 (stereo not drawn) [Compound 11, 1-(3-(3,6-difluoro-9H-carbazol-9-yl)-2-hydroxypropyl)-3-fluoropiperidin-2-one] | 6.92
C[C@@](O)(CN1CC[C@H](F)C1=O)Cn1c2ccc(F)cc2c2cc(F)ccc21 [Compound 125, (S)-1-((S)-3-(3,6-difluoro-9H-carbazol-9-yl)-2-hydroxy-2-methylpropyl)-3-fluoropyrrolidin-2-one] | 6.35
